Assay results: ChEMBL document CHEMBL1142913, “Novel synthesis of [1]-benzothiepino[5,4-b]pyridine-3-carbonitriles and their anti-inflammatory properties” (Bioorg Med Chem, 2007)

The compounds below were run on Rattus norvegicus (assay: Antiinflammatory activity against carrageenan-induced paw oedema in Wistar Albino rat assessed as mean swelling paw volume at 50 mg/kg, ip after 2 hrs). Conditions: route intraperitoneal.
Format: functional
Work on `N#Cc1c(-c2ccc(Br)cc2)c2c([nH]c1=S)-c1ccccc1SCC2` yielded an Activity of 0.485 mL.
`CCOc1nc2c(c(-c3ccc(OC)cc3)c1C#N)CCSc1ccccc1-2` was tested, and the Activity was 0.23 mL.
Work on `COc1ccc(-c2c3c([nH]c(=S)c2C#N)-c2ccccc2SCC3)cc1` yielded an Activity of 0.355 mL.
For `C1CCNCC1.COc1ccc(-c2c(C#N)c(S)[nH]c(=S)c2C#N)cc1.O`, the Activity was 0.594 mL.
Work on `COc1nc2c(c(-c3cccs3)c1C#N)CCSc1ccccc1-2` yielded an Activity of 0.447 mL.

The compounds below were run on Rattus norvegicus (assay: Antiinflammatory activity in Wistar Albino rat assessed as inhibition of carrageenan-induced paw oedema at 50 mg/kg, ip after 2 hrs). Conditions: route intraperitoneal.
Format: functional
Compound `N#Cc1c(-c2ccc(Br)cc2)c2c([nH]c1=S)-c1ccccc1SCC2` has an inhibition in vivo at 50 mg/kg of 56.7%.
`CCOc1nc2c(c(-c3ccc(OC)cc3)c1C#N)CCSc1ccccc1-2` was tested, and the inhibition in vivo at 50 mg/kg was 79.5%.
In the case of `COc1ccc(-c2c3c([nH]c(=S)c2C#N)-c2ccccc2SCC3)cc1`, the inhibition in vivo at 50 mg/kg is reported as 68.3%.
For `C1CCNCC1.COc1ccc(-c2c(C#N)c(S)[nH]c(=S)c2C#N)cc1.O`, the inhibition in vivo at 50 mg/kg was 47%.
In the case of `COc1nc2c(c(-c3cccs3)c1C#N)CCSc1ccccc1-2`, the inhibition in vivo at 50 mg/kg is reported as 60.1%.

Each compound was assayed on Rattus norvegicus (assay: Antiinflammatory activity against carrageenan-induced paw oedema in Wistar Albino rat assessed as mean swelling paw volume at 5 mg/kg, ip after 3 hrs). Conditions: route intraperitoneal.
Format: functional
`COc1ccc2c(c1)c(CC(=O)O)c(C)n2C(=O)c1ccc(Cl)cc1` [INDOMETHACIN] was tested, and the Activity was 0.46 mL.

Each compound was assayed on Rattus norvegicus (assay: Antiinflammatory activity against carrageenan-induced paw oedema in Wistar Albino rat assessed as mean swelling paw volume at 5 mg/kg, ip after 1 hr). Conditions: route intraperitoneal.
Format: functional
For `COc1ccc2c(c1)c(CC(=O)O)c(C)n2C(=O)c1ccc(Cl)cc1` [INDOMETHACIN], the Activity was 0.175 mL.

What follows are compounds tested on Rattus norvegicus (assay: Antiinflammatory activity against carrageenan-induced paw oedema in Wistar Albino rat assessed as mean swelling paw volume at 50 mg/kg, ip after 1 hr). Conditions: route intraperitoneal.
Format: functional
Compound `N#Cc1c(-c2ccc(Br)cc2)c2c([nH]c1=S)-c1ccccc1SCC2` has an Activity of 0.375 mL.
With `CCOc1nc2c(c(-c3ccc(OC)cc3)c1C#N)CCSc1ccccc1-2` the Activity was 0.23 mL.
`COc1ccc(-c2c3c([nH]c(=S)c2C#N)-c2ccccc2SCC3)cc1` was tested, and the Activity was 0.275 mL.
With `C1CCNCC1.COc1ccc(-c2c(C#N)c(S)[nH]c(=S)c2C#N)cc1.O` the Activity was 0.548 mL.
For `COc1nc2c(c(-c3cccs3)c1C#N)CCSc1ccccc1-2`, the Activity was 0.27 mL.

Each compound was assayed on Rattus norvegicus (assay: Antiinflammatory activity against carrageenan-induced paw oedema in Wistar Albino rat assessed as mean swelling paw volume at 50 mg/kg, ip after 4 hrs). Conditions: route intraperitoneal.
Format: functional
Compound `N#Cc1c(-c2ccc(Br)cc2)c2c([nH]c1=S)-c1ccccc1SCC2` has an Activity of 0.485 mL.
In the case of `CCOc1nc2c(c(-c3ccc(OC)cc3)c1C#N)CCSc1ccccc1-2`, the Activity is reported as 0.2 mL.
`COc1ccc(-c2c3c([nH]c(=S)c2C#N)-c2ccccc2SCC3)cc1` showed an Activity of 0.7 mL.
Work on `C1CCNCC1.COc1ccc(-c2c(C#N)c(S)[nH]c(=S)c2C#N)cc1.O` yielded an Activity of 0.658 mL.
In the case of `COc1nc2c(c(-c3cccs3)c1C#N)CCSc1ccccc1-2`, the Activity is reported as 0.695 mL.

These compounds were tested on Rattus norvegicus (assay: Antiinflammatory activity in Wistar Albino rat assessed as inhibition of carrageenan-induced paw oedema at 5 mg/kg, ip after 4 hrs). Conditions: route intraperitoneal.
Format: functional
For `COc1ccc2c(c1)c(CC(=O)O)c(C)n2C(=O)c1ccc(Cl)cc1` [INDOMETHACIN], the inhibition in vivo at 5 mg/kg was 82.6%.

Each compound was assayed on Rattus norvegicus (assay: Antiinflammatory activity in Wistar Albino rat assessed as inhibition of carrageenan-induced paw oedema at 5 mg/kg, ip after 3 hrs). Conditions: route intraperitoneal.
Format: functional
`COc1ccc2c(c1)c(CC(=O)O)c(C)n2C(=O)c1ccc(Cl)cc1` [INDOMETHACIN] gave an inhibition in vivo at 5 mg/kg of 66.4%.

What follows are compounds tested on Rattus norvegicus (assay: Antiinflammatory activity against carrageenan-induced paw oedema in Wistar Albino rat assessed as mean swelling paw volume at 5 mg/kg, ip after 2 hrs). Conditions: route intraperitoneal.
Format: functional
Compound `COc1ccc2c(c1)c(CC(=O)O)c(C)n2C(=O)c1ccc(Cl)cc1` [INDOMETHACIN] has an Activity of 0.195 mL.

The compounds below were run on Rattus norvegicus (assay: Antiinflammatory activity in Wistar Albino rat assessed as inhibition of carrageenan-induced paw oedema at 50 mg/kg, ip after 1 hr). Conditions: route intraperitoneal.
Format: functional
With `N#Cc1c(-c2ccc(Br)cc2)c2c([nH]c1=S)-c1ccccc1SCC2` the inhibition in vivo at 50 mg/kg was 38%.
`CCOc1nc2c(c(-c3ccc(OC)cc3)c1C#N)CCSc1ccccc1-2` gave an inhibition in vivo at 50 mg/kg of 62%.
Compound `COc1ccc(-c2c3c([nH]c(=S)c2C#N)-c2ccccc2SCC3)cc1` has an inhibition in vivo at 50 mg/kg of 54.5%.
In the case of `C1CCNCC1.COc1ccc(-c2c(C#N)c(S)[nH]c(=S)c2C#N)cc1.O`, the inhibition in vivo at 50 mg/kg is reported as 9.4%.
For `COc1nc2c(c(-c3cccs3)c1C#N)CCSc1ccccc1-2`, the inhibition in vivo at 50 mg/kg was 55.4%.

These compounds were tested on Mus musculus (assay: Toxicity in intraperitoneally dosed Albino mouse after 24 hrs). Conditions: in vivo, ip.
Format: organism-based
With `CCOc1nc2c(c(-c3ccc(OC)cc3)c1C#N)CCSc1ccccc1-2` the Activity was “Non-toxic”.

These compounds were tested on Rattus norvegicus (assay: Antiinflammatory activity against carrageenan-induced paw oedema in Wistar Albino rat assessed as mean swelling paw volume at 50 mg/kg, ip after 3 hrs). Conditions: route intraperitoneal.
Format: functional
`N#Cc1c(-c2ccc(Br)cc2)c2c([nH]c1=S)-c1ccccc1SCC2` was tested, and the Activity was 0.495 mL.
Work on `CCOc1nc2c(c(-c3ccc(OC)cc3)c1C#N)CCSc1ccccc1-2` yielded an Activity of 0.128 mL.
Compound `COc1ccc(-c2c3c([nH]c(=S)c2C#N)-c2ccccc2SCC3)cc1` has an Activity of 0.5 mL.
`C1CCNCC1.COc1ccc(-c2c(C#N)c(S)[nH]c(=S)c2C#N)cc1.O` was tested, and the Activity was 0.588 mL.
`COc1nc2c(c(-c3cccs3)c1C#N)CCSc1ccccc1-2` gave an Activity of 0.6 mL.

These compounds were tested on Rattus norvegicus (assay: Antiinflammatory activity in Wistar Albino rat assessed as inhibition of carrageenan-induced paw oedema at 5 mg/kg, ip after 1 hr). Conditions: route intraperitoneal.
Format: functional
Work on `COc1ccc2c(c1)c(CC(=O)O)c(C)n2C(=O)c1ccc(Cl)cc1` [INDOMETHACIN] yielded an inhibition in vivo at 5 mg/kg of 71.1%.

Each compound was assayed on Rattus norvegicus (assay: Antiinflammatory activity in Wistar Albino rat assessed as inhibition of carrageenan-induced paw oedema at 5 mg/kg, ip after 2 hrs). Conditions: route intraperitoneal.
Format: functional
`COc1ccc2c(c1)c(CC(=O)O)c(C)n2C(=O)c1ccc(Cl)cc1` [INDOMETHACIN] gave an inhibition in vivo at 5 mg/kg of 82.6%.

What follows are compounds tested on Rattus norvegicus (assay: Antiinflammatory activity in Wistar Albino rat assessed as inhibition of carrageenan-induced paw oedema at 50 mg/kg, ip after 4 hrs). Conditions: route intraperitoneal.
Format: functional
In the case of `N#Cc1c(-c2ccc(Br)cc2)c2c([nH]c1=S)-c1ccccc1SCC2`, the inhibition in vivo at 50 mg/kg is reported as 69.7%.
With `CCOc1nc2c(c(-c3ccc(OC)cc3)c1C#N)CCSc1ccccc1-2` the inhibition in vivo at 50 mg/kg was 87.5%.
`COc1ccc(-c2c3c([nH]c(=S)c2C#N)-c2ccccc2SCC3)cc1` showed an inhibition in vivo at 50 mg/kg of 56.3%.
With `C1CCNCC1.COc1ccc(-c2c(C#N)c(S)[nH]c(=S)c2C#N)cc1.O` the inhibition in vivo at 50 mg/kg was 58.9%.
`COc1nc2c(c(-c3cccs3)c1C#N)CCSc1ccccc1-2` gave an inhibition in vivo at 50 mg/kg of 56.6%.

The compounds below were run on Rattus norvegicus (assay: Antiinflammatory activity in Wistar Albino rat assessed as inhibition of carrageenan-induced paw oedema at 50 mg/kg, ip after 3 hrs). Conditions: route intraperitoneal.
Format: functional
With `N#Cc1c(-c2ccc(Br)cc2)c2c([nH]c1=S)-c1ccccc1SCC2` the inhibition in vivo at 50 mg/kg was 63.8%.
In the case of `CCOc1nc2c(c(-c3ccc(OC)cc3)c1C#N)CCSc1ccccc1-2`, the inhibition in vivo at 50 mg/kg is reported as 90.6%.
`COc1ccc(-c2c3c([nH]c(=S)c2C#N)-c2ccccc2SCC3)cc1` showed an inhibition in vivo at 50 mg/kg of 63.5%.
For `C1CCNCC1.COc1ccc(-c2c(C#N)c(S)[nH]c(=S)c2C#N)cc1.O`, the inhibition in vivo at 50 mg/kg was 57%.
In the case of `COc1nc2c(c(-c3cccs3)c1C#N)CCSc1ccccc1-2`, the inhibition in vivo at 50 mg/kg is reported as 56.1%.

Each compound was assayed on Rattus norvegicus (assay: Antiinflammatory activity against carrageenan-induced paw oedema in Wistar Albino rat assessed as mean swelling paw volume at 5 mg/kg, ip after 4 hrs). Conditions: route intraperitoneal.
Format: functional
Compound `COc1ccc2c(c1)c(CC(=O)O)c(C)n2C(=O)c1ccc(Cl)cc1` [INDOMETHACIN] has an Activity of 0.278 mL.
